From the supplement of paper PMC10307832

Columns and labels:
Assay in all cases: relative viability (nuclei count vs DMSO), 5 days (fraction); higher = more cells survive
Ispinesib + Palbociclib = compound: Cc1ccc(C(=O)N(CCCN)[C@@H](c2nc3cc(Cl)ccc3c(=O)n2Cc2ccccc2)C(C)C)cc1 [Ispinesib] + CC(=O)c1c(C)c2cnc(Nc3ccc(N4CCNCC4)cn3)nc2n(C2CCCC2)c1=O [Palbociclib] (partner 0.5 µM)
Summary of the method: (§1)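 Lung cancer cell lines, seeded in 1536-well plates, were treated the following day by pin tool with a single drug or with five library-drug doses (not always all listed) in √10 steps on top of a fixed anchor-drug dose. Cells were fixed and nuclei stained in one step after 5 days, and nuclei were counted. Relative viability is the nuclei count for treated wells divided by that for vehicle wells, reported as medians of duplicate plates.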

Ispinesib + Olaparib = compound: Cc1ccc(C(=O)N(CCCN)[C@@H](c2nc3cc(Cl)ccc3c(=O)n2Cc2ccccc2)C(C)C)cc1 [Ispinesib] + O=C(c1cc(Cc2n[nH]c(=O)c3ccccc23)ccc1F)N1CCN(C(=O)C2CC2)CC1 [Olaparib] (partner 8 µM)
Summary of the method: as §1

Ispinesib + Lapatinib = compound: Cc1ccc(C(=O)N(CCCN)[C@@H](c2nc3cc(Cl)ccc3c(=O)n2Cc2ccccc2)C(C)C)cc1 [Ispinesib] + CS(=O)(=O)CCNCc1ccc(-c2ccc3ncnc(Nc4ccc(OCc5cccc(F)c5)c(Cl)c4)c3c2)o1 [Lapatinib] (partner 2 µM)
Summary of the method: as §1

Ispinesib + Linsitinib = compound: Cc1ccc(C(=O)N(CCCN)[C@@H](c2nc3cc(Cl)ccc3c(=O)n2Cc2ccccc2)C(C)C)cc1 [Ispinesib] + C[C@]1(O)C[C@@H](c2nc(-c3ccc4ccc(-c5ccccc5)nc4c3)c3c(N)nccn32)C1 [Linsitinib] (partner 1 µM)
Summary of the method: as §1

Cell Line | relative viability (Ispinesib + Palbociclib; first compound 0.001 µM) | relative viability (Ispinesib + Palbociclib; first compound 0.003162 µM) | relative viability (Ispinesib + Palbociclib; first compound 0.01 µM) | relative viability (Ispinesib + Palbociclib; first compound 0.03162 µM) | relative viability (Ispinesib + Palbociclib; first compound 0.1 µM) | relative viability (Ispinesib + Olaparib; first compound 0.001 µM) | relative viability (Ispinesib + Olaparib; first compound 0.003162 µM) | relative viability (Ispinesib + Olaparib; first compound 0.01 µM) | relative viability (Ispinesib + Olaparib; first compound 0.03162 µM) | relative viability (Ispinesib + Olaparib; first compound 0.1 µM) | relative viability (Ispinesib + Lapatinib; first compound 0.001 µM) | relative viability (Ispinesib + Lapatinib; first compound 0.003162 µM) | relative viability (Ispinesib + Lapatinib; first compound 0.01 µM) | relative viability (Ispinesib + Lapatinib; first compound 0.03162 µM) | relative viability (Ispinesib + Lapatinib; first compound 0.1 µM) | relative viability (Ispinesib + Linsitinib; first compound 0.001 µM) | relative viability (Ispinesib + Linsitinib; first compound 0.003162 µM) | relative viability (Ispinesib + Linsitinib; first compound 0.01 µM) | relative viability (Ispinesib + Linsitinib; first compound 0.03162 µM) | relative viability (Ispinesib + Linsitinib; first compound 0.1 µM)
NCI-H522 | 1 | 0.965 | 1.01 | 0.903 | 1.02 | 0.634 | 0.585 | 0.779 | 0.571 | 0.555 |  |  |  |  |  |  |  |  |  | 
PC-3 [JPC-3] | 0.533 | 0.55 | 0.548 | 0.553 | 0.395 | 1.23 | 1.31 | 0.887 | 1.12 | 0.541 | 0.456 | 0.486 | 0.439 | 0.413 | 0.318 | 0.937 | 0.917 | 0.949 | 0.989 | 1.03
NCI-H1703 |  |  |  |  |  | 0.601 | 0.312 | 0.246 | 0.127 | 0.105 | 1.32 | 0.893 | 0.227 | 0.11 | 0.234 | 0.742 | 0.64 | 0.504 | 0.106 | 0.0823
EPLC-272H | 0.341 | 0.306 | 0.329 | 0.328 | 0.149 | 0.776 | 0.781 | 0.769 | 0.308 | 0.155 | 0.919 | 1.11 | 1.02 | 0.561 | 0.145 | 1.17 | 1.53 | 1.48 | 1.05 | 1.06
NCI-H1792 | 0.725 | 0.762 | 0.859 | 0.686 | 0.301 | 0.385 | 0.394 | 0.252 | 0.53 | 0.152 | 0.876 | 1.05 | 0.843 | 0.418 | 0.314 | 0.45 | 0.52 | 0.492 | 0.25 | 0.392
NCI-H2085 | 0.384 | 0.411 | 0.481 | 0.469 | 0.402 | 0.747 | 0.779 | 0.845 | 0.792 | 0.544 | 0.721 | 0.857 | 0.81 | 0.444 | 0.314 | 0.954 | 1.01 | 0.904 | 0.777 | 0.605
LK-2 | 0.687 | 0.821 | 0.824 | 0.743 | 0.188 | 0.795 | 0.814 | 0.698 | 0.632 | 0.329 | 1.07 | 1.07 | 0.908 | 0.681 | 0.313 | 0.805 | 0.328 | 0.521 | 0.435 | 0.267
NCI-H1395 | 0.721 | 0.642 | 0.412 | 0.444 | 0.463 | 0.436 | 0.446 | 0.439 | 0.369 | 0.356 | 1.1 | 1.11 | 0.779 | 0.545 | 0.33 | 1.1 | 1.04 | 0.966 | 0.407 | 0.436
ABC-1 | 0.578 | 0.665 | 0.765 |  | 0.49 | 1.04 | 0.955 | 0.838 |  | 0.41 | 1.06 | 1.18 | 1.19 | 1.03 | 0.766 | 0.94 | 0.874 | 0.965 | 0.376 | 0.338
RERF-LC-KJ | 1.11 | 1.03 | 0.935 | 0.68 | 0.583 | 0.934 | 0.791 | 0.427 | 0.22 | 0.328 | 1.02 | 0.835 | 0.931 | 0.831 | 0.304 | 1.01 | 0.855 | 1.02 | 0.819 | 0.244
LU99A | 0.398 | 0.44 | 0.481 | 0.315 | 0.285 | 0.249 | 0.264 | 0.235 | 0.234 | 0.245 | 0.992 | 1.11 | 1.14 | 0.192 | 0.201 | 0.573 | 0.587 | 0.509 | 0.336 | 0.167
NCI-H650 | 0.301 | 0.309 | 0.361 | 0.324 | 0.335 | 0.361 | 0.384 | 0.409 | 0.427 | 0.278 | 0.89 | 1.17 | 0.638 | 0.34 | 0.23 | 0.995 | 0.958 | 0.887 | 0.358 | 0.245
NCI-H2347 | 0.406 | 0.388 | 0.423 | 0.395 | 0.419 | 0.504 | 0.692 | 0.592 | 0.559 | 0.525 | 0.943 | 1.05 | 0.957 | 0.667 | 0.774 | 1.01 | 1.04 | 1.13 | 0.805 | 0.913
HARA | 0.299 | 0.262 | 0.284 | 0.256 | 0.225 | 1.03 | 0.83 | 0.592 | 0.707 | 0.316 | 0.8 | 0.856 | 0.987 | 0.151 | 0.144 | 0.993 | 0.85 | 1.32 | 1.07 | 0.207
NCI-H2228 | 1 | 1.05 | 1.08 | 0.544 | 0.386 | 0.857 | 0.717 | 0.543 | 0.418 | 0.327 | 1.23 | 1.29 | 1.26 | 0.363 | 0.422 | 0.839 | 0.607 | 1 | 0.803 | 0.338
EKVX | 0.456 |  | 0.409 | 0.463 | 0.295 | 0.83 |  | 1.05 | 0.831 | 0.317 | 0.208 | 0.206 | 0.204 | 0.223 | 0.131 | 1.15 | 1.05 | 1.17 | 0.927 | 0.454
HCC-827 | 0.496 | 0.49 | 0.58 | 0.543 | 0.477 | 0.652 | 0.672 | 0.67 | 0.686 | 0.601 | 0.194 | 0.194 | 0.181 | 0.189 | 0.0607 | 0.955 | 1.01 | 1.01 | 0.959 | 0.892
